Reference: patent publication US9573957B2 (Boehringer Ingelheim International GmbH, priority 2013, dated 2017)

How the values were obtained:
human LTA4 hydrolase = human LTA4 hydrolase (Homo sapiens (Human), UniProt P09960); experiment: LTA4H Enzyme assay (peptidase, Arg-AMC cleavage); type: biochemical; conditions: LTA4H Enzyme 1 nM, Arg-AMC substrate 50 μM, room temperature 1 h, fluorescence
Method: The compounds of the invention are assessed for the ability to interact with human LTA4 hydrolase in an enzymatic assay that measures the ability of the enzyme to cleave the peptide bond of arginyl-aminomethylcoumarin (Arg-AMC). LTA4H Enzyme (1 nM final), Arg-AMC substrate (50 μM final), and compound are combined in a reaction buffer (50 mM Tris-HCl (pH 7.5), 100 mM KCl, 0.5% bovine serum albumin) at room temperature for 1 h. The formation of product is assessed by measuring the fluorescence of aminomethylcoumarin product (excitation wavelength 380 nm/emission wavelength 460 nm).

[1] = system: synthesis of LTB4 in human whole blood; experiment: LTB4 production inhibition assay in human whole blood (HWB); type: cell-based; conditions: heparinized human whole blood, 15 min at 37° C., Calcimycin 20 μM 30 min, plasma LTB4 by HTRF
Method: The compounds of the invention are additionally tested in a human whole blood (HWB) assay to determine their ability to inhibit the synthesis of LTB4 in a cellular system. Compounds are combined with heparinized human whole blood and incubated for 15 minutes at 37° C. Calcimycin (20 μM final, prepared in phosphate-buffered saline, pH 7.4) is then added and the mixture is incubated for another 30 minutes at 37° C. The samples are centrifuged for 5 min at low speed (1500×g) and the plasma layer is removed. Plasma LTB4 concentrations are then measured using an antibody-based homogenous time-resolved fluorescence method (CisBio, Bedford, Mass.).

Chain of human LTA4 hydrolase (P09960 whole entry): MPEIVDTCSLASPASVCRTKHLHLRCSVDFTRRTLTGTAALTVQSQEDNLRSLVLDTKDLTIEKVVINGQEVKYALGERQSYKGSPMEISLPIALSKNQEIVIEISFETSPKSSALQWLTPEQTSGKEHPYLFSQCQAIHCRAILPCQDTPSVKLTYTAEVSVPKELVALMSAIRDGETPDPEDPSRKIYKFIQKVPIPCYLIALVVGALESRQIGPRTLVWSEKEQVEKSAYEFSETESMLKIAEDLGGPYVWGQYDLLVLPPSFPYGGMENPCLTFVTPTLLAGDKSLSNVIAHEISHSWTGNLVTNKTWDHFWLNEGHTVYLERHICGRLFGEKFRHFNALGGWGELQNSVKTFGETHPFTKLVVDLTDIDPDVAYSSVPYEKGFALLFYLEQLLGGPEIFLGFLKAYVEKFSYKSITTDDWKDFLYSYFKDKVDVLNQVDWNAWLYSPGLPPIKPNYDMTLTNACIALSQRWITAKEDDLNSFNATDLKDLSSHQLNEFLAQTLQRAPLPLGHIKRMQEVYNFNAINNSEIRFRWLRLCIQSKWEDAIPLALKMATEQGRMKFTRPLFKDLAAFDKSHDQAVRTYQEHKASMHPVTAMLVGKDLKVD

CC(=O)N1CCN(C(=O)c2coc3cc(Oc4ccc(-c5ccn[nH]5)cn4)ccc23)CC1 [Example 112, 1-(4-{6-[5-(2H-Pyrazol-3-yl)-pyridin-2-yloxy]-benzofuran-3-carbonyl}-piperazin-1-yl)-ethanone]
IC50 (human LTA4 hydrolase): 1.9 nM | IC50 [1]: 350 nM

O[C@H]1CCN(Cc2ccc3cc(Oc4ccc(-c5ccn[nH]5)cn4)ccc3c2)C1 [Example 5, (S)-1-{6-[5-(2H-Pyrazol-3-yl)-pyridin-2-yloxy]-naphthalen-2-ylmethyl}-pyrrolidin-3-ol]
IC50 (human LTA4 hydrolase): 0.6 nM | IC50 [1]: 130 nM

O=C(C1C2COCC21)N1CCN(Cc2ccc3cc(Oc4ccc(-c5ccn[nH]5)cn4)ccc3n2)CC1 (centres unmarked) [Example 136, (3-Oxa-bicyclo[3.1.0]hex-6-yl)-(4-{6-[5-(2H-pyrazol-3-yl)-pyridin-2-yloxy]-quinolin-2-ylmethyl}-piperazin-1-yl)-methanone]
IC50 (human LTA4 hydrolase): 6 nM | IC50 [1]: 770 nM

CC(=O)N1CC(CN(C)Cc2ccc3cc(Oc4ncc(-c5ccn[nH]5)cn4)ccc3c2)C1 [Example 32, 1-{3-[(Methyl-{6-[5-(2H-pyrazol-3-yl)-pyrimidin-2-yloxy]-naphthalen-2-ylmethyl}-amino)-methyl]-azetidin-1-yl}-ethanone]
IC50 (human LTA4 hydrolase): 1.1 nM | IC50 [1]: 180 nM

CC(=O)N1CCN(Cc2cn3cc(Oc4ccc(-c5ccn[nH]5)cc4)ccc3n2)CC1 [Example 95, 1-(4-{6-[4-(2H-Pyrazol-3-yl)-phenoxy]-imidazo[1,2-a]pyridin-2-ylmethyl}-piperazin-1-yl)-ethanone]
IC50 (human LTA4 hydrolase): 0.59 nM | IC50 [1]: 280 nM

CC(C)[C@@H](O)C(=O)N1CCN(Cc2ccc3cc(Oc4ccc(-c5ccn[nH]5)cn4)ccc3n2)CC1 [Example 120, (R)-2-Hydroxy-3-methyl-1-(4-{6-[5-(2H-pyrazol-3-yl)-pyridin-2-yloxy]-quinolin-2-ylmethyl}-piperazin-1-yl)-butan-1-one]
IC50 (human LTA4 hydrolase): 5.9 nM | IC50 [1]: 700 nM

O=C([C@H]1CCCO1)N1CC2CCC(C1)N2Cc1ccc2cc(Oc3ccc(-c4ccn[nH]4)cn3)ccc2n1 [Example 54, (8-{6-[5-(2H-Pyrazol-3-yl)-pyridin-2-yloxy]-quinolin-2-ylmethyl}-3,8-diaza-bicyclo[3.2.1]oct-3-yl)-(R)-tetrahydro-furan-2-yl-methanone]
IC50 (human LTA4 hydrolase): 1.3 nM | IC50 [1]: 190 nM

CO[C@@H](C)C(=O)N1CCN(CCc2coc3cc(Oc4ccc(-c5ccn[nH]5)cn4)ccc23)CC1 [Example 75, (S)-2-Methoxy-1-[4-(2-{6-[5-(2H-pyrazol-3-yl)-pyridin-2-yloxy]-benzofuran-3-yl}-ethyl)-piperazin-1-yl]-propan-1-one]
IC50 (human LTA4 hydrolase): 0.88 nM | IC50 [1]: 250 nM

O=C1[C@@H](O)CCN1C1CCN(Cc2ccc3cc(Oc4ccc(-c5ccn[nH]5)cn4)ccc3n2)CC1 [Example 8, (S)-3-Hydroxy-1-(1-{6-[5-(2H-pyrazol-3-yl)-pyridin-2-yloxy]-quinolin-2-ylmethyl}-piperidin-4-yl)-pyrrolidin-2-one]
IC50 (human LTA4 hydrolase): 0.86 nM | IC50 [1]: 230 nM

CO[C@H](C)C(=O)N1CCN(CCC2COc3cc(Oc4ccc(-c5ccn[nH]5)cn4)ccc32)CC1 (stereo partly drawn) [Example 76, (R)-2-Methoxy-1-[4-(2-{6-[5-(2H-pyrazol-3-yl)-pyridin-2-yloxy]-2,3-dihydro-benzofuran-3-yl}-ethyl)-piperazin-1-yl]-propan-1-one]
IC50 (human LTA4 hydrolase): 1.7 nM | IC50 [1]: 360 nM

CN(C)C(=O)C1CCN(Cc2ccc3cc(Oc4ncc(-c5ccn[nH]5)cn4)ccc3c2)CC1 [Example 38, 1-{6-[5-(2H-Pyrazol-3-yl)-pyrimidin-2-yloxy]-naphthalen-2-ylmethyl}-piperidine-4-carboxylic acid dimethylamide]
IC50 (human LTA4 hydrolase): 1.2 nM | IC50 [1]: 180 nM

C[C@@H](O)C(=O)N1CCN(Cc2ccc3cc(Oc4ccc(-c5ccn[nH]5)cn4)ccc3n2)CC1 [Example 123, (R)-2-Hydroxy-1-(4-{6-[5-(2H-pyrazol-3-yl)-pyridin-2-yloxy]-quinolin-2-ylmethyl}-piperazin-1-yl)-propan-1-one]
IC50 (human LTA4 hydrolase): 0.88 nM | IC50 [1]: 200 nM

O=C(C1CCOCC1)N1CCN(Cc2ccc3cc(Oc4ccc(-c5ccn[nH]5)cn4)ccc3n2)CC1 [Example 131, (4-{6-[5-(2H-Pyrazol-3-yl)-pyridin-2-yloxy]-quinolin-2-ylmethyl}-piperazin-1-yl)-(tetrahydro-pyran-4-yl)-methanone]
IC50 (human LTA4 hydrolase): 2.3 nM | IC50 [1]: 360 nM

C[C@H](O)C(=O)N1CCN(Cc2cn3cc(Oc4ccc(-c5ccn[nH]5)cc4)ccc3n2)CC1 [Example 87, (S)-2-Hydroxy-1-(4-{6-[4-(2H-pyrazol-3-yl)-phenoxy]-imidazo[1,2-a]pyridin-2-ylmethyl}-piperazin-1-yl)-propan-1-one]
IC50 (human LTA4 hydrolase): 1 nM | IC50 [1]: 260 nM

O=C(N1CCN(CCc2coc3cc(Oc4ccc(-c5ccn[nH]5)cn4)ccc23)CC1)C1(O)CC1 [Example 93, (1-Hydroxy-cyclopropyl)-[4-(2-{6-[5-(2H-pyrazol-3-yl)-pyridin-2-yloxy]-benzofuran-3-yl}-ethyl)-piperazin-1-yl]-methanone]
IC50 (human LTA4 hydrolase): 0.91 nM | IC50 [1]: 530 nM

O=C([C@@H]1CCCO1)N1CCN(Cc2ccc3cc(Oc4ccc(-c5ccn[nH]5)cn4)ccc3n2)CC1 [Example 132, (4-{6-[5-(2H-Pyrazol-3-yl)-pyridin-2-yloxy]-quinolin-2-ylmethyl}-piperazin-1-yl)-(S)-tetrahydro-furan-2-yl-methanone]
IC50 (human LTA4 hydrolase): 2.9 nM | IC50 [1]: 630 nM

OC[C@H]1CCN(Cc2ccc3cc(Oc4ccc(-c5ccn[nH]5)cn4)ccc3c2)C1 [Example 18, ((S)-1-{6-[5-(2H-Pyrazol-3-yl)-pyridin-2-yloxy]-naphthalen-2-ylmethyl}-pyrrolidin-3-yl)-methanol]
IC50 (human LTA4 hydrolase): 0.76 nM | IC50 [1]: 160 nM

COC(C)(C)C(=O)N1CCN(Cc2ccc3cc(Oc4ccc(-c5ccn[nH]5)cn4)ccc3n2)CC1 [Example 128, 2-Methoxy-2-methyl-1-(4-{6-[5-(2H-pyrazol-3-yl)-pyridin-2-yloxy]-quinolin-2-ylmethyl}-piperazin-1-yl)-propan-1-one]
IC50 (human LTA4 hydrolase): 0.56 nM | IC50 [1]: 240 nM

CO[C@H](C)C(=O)N1CCN(Cc2cn3cc(Oc4ccc(-c5ccn[nH]5)cc4)ccc3n2)CC1 [Example 80, (R)-2-Methoxy-1-(4-{6-[4-(2H-pyrazol-3-yl)-phenoxy]-imidazo[1,2-a]pyridin-2-ylmethyl}-piperazin-1-yl)-propan-1-one]
IC50 (human LTA4 hydrolase): 0.85 nM | IC50 [1]: 200 nM

CC[C@H](CC#N)NCc1ccc2cc(Oc3ccc(-c4ccn[nH]4)cn3)ccc2n1 [Example 44, (R)-3-({6-[5-(2H-Pyrazol-3-yl)-pyridin-2-yloxy]-quinolin-2-ylmethyl}-amino)-pentanenitrile]
IC50 (human LTA4 hydrolase): 2.7 nM | IC50 [1]: 870 nM

CC(=O)N[C@@H]1CCN(Cc2ccc3cc(Oc4ccc(-c5ccn[nH]5)cn4)ccc3c2)C1 [Example 12, N-((R)-1-{6-[5-(2H-Pyrazol-3-yl)-pyridin-2-yloxy]-naphthalen-2-ylmethyl}-pyrrolidin-3-yl)-acetamide]
IC50 (human LTA4 hydrolase): 0.34 nM | IC50 [1]: 120 nM

C[C@@H](O)C(=O)N1CCN(CCc2coc3cc(Oc4ccc(-c5ccn[nH]5)cn4)ccc23)CC1 [Example 92, (R)-2-Hydroxy-1-[4-(2-{6-[5-(2H-pyrazol-3-yl)-pyridin-2-yloxy]-benzofuran-3-yl}-ethyl)-piperazin-1-yl]-propan-1-one]
IC50 (human LTA4 hydrolase): 1.1 nM | IC50 [1]: 470 nM

O=C(CO)N1CCC2(CCN(Cc3coc4cc(Oc5ccc(-c6ccn[nH]6)cn5)ccc34)C2)C1 (centres unmarked) [Example 115, 2-Hydroxy-1-(7-{6-[5-(2H-pyrazol-3-yl)-pyridin-2-yloxy]-benzofuran-3-ylmethyl}-2,7-diaza-spiro[4.4]non-2-yl)-ethanone]
IC50 (human LTA4 hydrolase): 0.43 nM | IC50 [1]: 120 nM

O=C1OCCN1C1CCN(Cc2ccc3cc(Oc4ncc(-c5ccn[nH]5)cn4)ccc3c2)CC1 [Example 33, 3-(1-{6-[5-(2H-Pyrazol-3-yl)-pyrimidin-2-yloxy]-naphthalen-2-ylmethyl}-piperidin-4-yl)-oxazolidin-2-one]
IC50 (human LTA4 hydrolase): 0.92 nM | IC50 [1]: 150 nM

O=C(CO)N1CCN(Cc2ccc3cc(Oc4ncc(-c5ccn[nH]5)cn4)ccc3c2)CC1 [Example 48, 2-Hydroxy-1-(4-{6-[5-(2H-pyrazol-3-yl)-pyrimidin-2-yloxy]-naphthalen-2-ylmethyl}-piperazin-1-yl)-ethanone]
IC50 (human LTA4 hydrolase): 2.9 nM | IC50 [1]: 610 nM

O=C(N1CCN(Cc2ccc3cc(Oc4ccc(-c5ccn[nH]5)cn4)ccc3n2)CC1)C1(O)CCCC1 [Example 119, (1-Hydroxy-cyclopentyl)-(4-{6-[5-(2H-pyrazol-3-yl)-pyridin-2-yloxy]-quinolin-2-ylmethyl}-piperazin-1-yl)-methanone]
IC50 (human LTA4 hydrolase): 8.6 nM | IC50 [1]: 1200 nM

O=C(CO)NC1CCN(Cc2ccc3cc(Oc4ccc(-c5ccn[nH]5)cn4)ccc3c2)CC1 [Example 9, 2-Hydroxy-N-(1-{6-[5-(2H-pyrazol-3-yl)-pyridin-2-yloxy]-naphthalen-2-ylmethyl}-piperidin-4-yl)-acetamide]
IC50 (human LTA4 hydrolase): 0.5 nM | IC50 [1]: 170 nM

COCC(=O)N1CCN(Cc2cn3cc(Oc4ccc(-c5ccn[nH]5)cc4)ccc3n2)CC1 [Example 89, 2-Methoxy-1-(4-{6-[4-(2H-pyrazol-3-yl)-phenoxy]-imidazo[1,2-a]pyridin-2-ylmethyl}-piperazin-1-yl)-ethanone]
IC50 (human LTA4 hydrolase): 0.66 nM | IC50 [1]: 470 nM
